Test results taken from patent US20120277177A1, “CRYSTALLINE PHASES OF 5,6-DICHLORO-2-(ISOPROPYLAMINO)-1-BETA-RIBOFURANOSYL-1H-BENZIMIDAZOLE” (priority 2010, published 2012).

Test: Solid-state stability on storage in the well-plate under ambient temperature and relative humidity
Format: physicochemical
Conditions: for form change (desolvation / transformation) after storage: storage in the well-plate under ambient temperature and relative humidity for approximately 3 weeks
Description: The invention relates to the anhydrate crystalline Form VIII, hydrates and solvates both in pure form and in admixture with other anhydrate forms, hydrates or solvates of the compound of formula (I).

CC(C)Nc1nc2cc(Cl)c(Cl)cc2n1[C@H]1O[C@@H](CO)[C@H](O)[C@@H]1O [t-butylmethyl ether solvate 2, 5,6-dichloro-2-(isopropylamino)-1-(β-L-ribofuranosyl)-1H-benzimidazole]
form change (transformation) after storage (approximately 4 weeks of storage under ambient conditions): partially transformed into Form VI

CC(C)Nc1nc2cc(Cl)c(Cl)cc2n1[C@H]1O[C@@H](CO)[C@H](O)[C@@H]1O [n-propyl acetate solvate, 5,6-dichloro-2-(isopropylamino)-1-(β-L-ribofuranosyl)-1H-benzimidazole]
form change (desolvation / transformation) after storage: partially desolvated and transformed to the anhydrate Form VI

CC(C)Nc1nc2cc(Cl)c(Cl)cc2n1[C@H]1O[C@@H](CO)[C@H](O)[C@@H]1O [acetonitrile solvate, 5,6-dichloro-2-(isopropylamino)-1-(β-L-ribofuranosyl)-1H-benzimidazole]
form change (desolvation / transformation) after storage: completely desolvated and transformed to the anhydrate Form V
